The target of assay [1] is protein-protein interaction between Kras and SOS1 (biotin-tagged human Kras loaded with GDP, His-tagged human SOS1) (Homo sapiens (Human), UniProt P01116, G12D). In words: Protein-protein interaction inhibition between Kras and SOS1 (KrasG12D-SOS PPI) using AlphaScreen.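 Note: kras produced in E. coli, Ni-coupled donor beads and streptavidin acceptor beads, excitation 680 nm with emission detected at 520–620 nm via singlet oxygen transfer.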 In kind it is biochemical. The following applies: AlphaScreen; biotin-tagged human Kras loaded with GDP, His-tagged human SOS1; read-out: KRAS G12D-SOS PPI IC50. (In general: Alpha assays give light when donor and acceptor beads are brought close together.)

The subject of assay [2] is Human pancreatic cancer cell line AsPC-1 (G12D mutation Kras). In words: AsPC-1 cell growth inhibition (AsPC-1 CGI). In kind it is cell-based. The following applies: read-out: AsPC-1 cell growth inhibition, 50% growth inhibitory concentration (IC50 value); 96 hours, CellTiter-Glo, values classified in ranges.
Protocol: Test compounds were serially dilated with dimethyl sulfoxide, and 200 nL was then dispensed to a U-bottom 96-well plate using Labcyte Echo. […] The cell suspension was dispensed to a. plate containing a test compound at 100 μL per well and incubated at 37° C. in a 5% carbon dioxide gas incubator. 96 hours later, 80 μL of CellTiter-Glo (Promega) was added to each well and fluorescence was measured.

For six compounds, IC50 results are on record in patent publication US20240148821A1, “PHARMACEUTICAL USE OF CYCLIC PEPTIDE COMPOUND” (CHUGAI SEIYAKU KABUSHIKI KAISHA, priority 2021, published 2024).

Each structure is given as a SMILES string. Numbered stars: 1 amine (or outer) side, 2 acyl side, 3 side chain; on linkers, the order of the positions; unused ones are H or OH. Bridge positions count the residues as written; N and C are the ends. Square brackets hold non-standard residues; d marks the D form. Peptide text beside a SMILES is read from it. * marks the point of attachment. hPhe(3-Cl-4-CF3) = N[C@@H](CCc1ccc(C(F)(F)F)c(Cl)c1)C(=O)O; NEtPhe(4-Me) = CCN[C@@H](Cc1ccc(C)cc1)C(=O)O; NMePhe(4-Me) = CN[C@@H](Cc1ccc(C)cc1)C(=O)O; NMedβ3hAla = C[C@H](CC(=O)[*:2])N(C)[*:1]; NMeGly(cPent) = CN[C@H](C(=O)O)C1CCCC1; X28 = O=C(CN(C1CC2(COC2)C1)[*:1])[*:2]; NMeCha = CN[C@@H](CC1CCCCC1)C(=O)O; Hyp = O=C(O)[C@@H]1C[C@@H](O)CN1; NMeChg = CN[C@H](C(=O)O)C1CCCCC1; NMeF = CN[C@@H](Cc1ccccc1)C(=O)O; NMeI = CC[C@H](C)[C@H](NC)C(=O)O; NMeD = CN[C@@H](CC(=O)O)C(=O)O; NMeL = CN[C@@H](CC(C)C)C(=O)O; NMeV = CN[C@H](C(=O)O)C(C)C; Trifluoroethyl = FC(F)(F)C*; NMeC = CN[C@@H](CS)C(=O)O; NMeS = CN[C@@H](CO)C(=O)O; NMeA = CN[C@@H](C)C(=O)O; Piperidide = C1CCN(*)CC1; dNMeA = CN[C@H](C)C(=O)O; Ac5c = NC1(C(=O)O)CCCC1; Aze = O=C(O)[C@@H]1CCN1; Sar = CNCC(=O)O

For `CCO[C@@H]1C[C@H]2C(=O)NC3(CCCC3)C(=O)N(C)[C@@H](C3CCCC3)C(=O)N(C)[C@H](C)CC(=O)N(C)[C@@H](CC(C)C)C(=O)N[C@@H]([C@@H](C)CC)C(=O)N(C)[C@@H](C)C(=O)N3CC[C@H]3C(=O)N(CC)[C@@H](Cc3ccc(C)cc3)C(=O)N(C)CC(=O)N[C@@H](CCc3ccc(C(F)(F)F)c(Cl)c3)C(=O)N2C1` [Compound 775] (cyclo([Ac5c][NMeGly(cPent)][NMedβ3hAla][NMeL]I[NMeA][Aze][NEtPhe(4-Me)][Sar][hPhe(3-Cl-4-CF3)][Hyp](Et))), the figures for the IC50 in assay [1] and in assay [2] were 4.6 nM and ≤ 20 nM, respectively.
For `CC[C@H](C)[C@@H]1NC(=O)[C@H](C)N(C)C(=O)C[C@@H](C(=O)N2CCCCC2)N(C)C(=O)[C@H](C(C)C)N(C)C(=O)C2(CCCC2)NC(=O)[C@@H]2CCCN2C(=O)[C@H](CCc2ccc(C(F)(F)F)c(Cl)c2)NC(=O)[C@@H](C)N(C)C(=O)[C@H](Cc2ccccc2)N(C)C(=O)[C@@H]2CCN2C(=O)[C@H](C)N(C)C1=O` [Compound 1724] ([NMeA]I[NMeA][Aze][NMeF][dNMeA][hPhe(3-Cl-4-CF3)]P[Ac5c][NMeV][NMeD]-Piperidide; lactam N-11) the same measures were 16 nM and > 500 nM.
For `CC[C@H](C)[C@@H]1NC(=O)[C@H](CC(C)C)N(C)C(=O)C[C@@H](C(=O)N(C)C)N(C)C(=O)[C@H]([C@@H](C)CC)N(C)C(=O)C2(CCCC2)NC(=O)[C@@H]2CCCN2C(=O)[C@H](CCc2ccc(C(F)(F)F)c(Cl)c2)NC(=O)CN(C)C(=O)[C@H](Cc2ccc(C)cc2)N(C)C(=O)[C@@H]2CCN2C(=O)[C@H](C)NC1=O` [Compound 840] ([NMeL]IA[Aze][NMePhe(4-Me)][Sar][hPhe(3-Cl-4-CF3)]P[Ac5c][NMeI][NMeD]-NMe2; lactam N-11) the same measures were 1.2 nM and ≤ 20 nM.
With `CC[C@H](C)[C@@H]1NC(=O)[C@H](CC(C)C)N(C)C(=O)C[C@@H](C(=O)N2CCCCC2)N(C)C(=O)[C@H](C(C)C)N(C)C(=O)C2(CCCC2)NC(=O)[C@@H]2CCCN2C(=O)[C@H](CCc2ccc(C(F)(F)F)c(Cl)c2)NC(=O)CN(C)C(=O)[C@H](COCC(F)(F)F)N(C)C(=O)[C@@H]2CCN2C(=O)[C@H](C)N(C)C1=O` [Compound 254] ([NMeL]I[NMeA][Aze][NMeS](Trifluoroethyl)[Sar][hPhe(3-Cl-4-CF3)]P[Ac5c][NMeV][NMeD]-Piperidide; lactam N-11), the IC50 in assay [1] is 15 nM; in assay [2] it was > 500 nM.
For `CC[C@H](C)[C@@H]1NC(=O)[C@H](CC(C)C)N(C)C(=O)C[C@@H](C(=O)N2CCCCC2)N(C)C(=O)[C@H](C2CCCCC2)N(C)C(=O)C2(CCCC2)NC(=O)CN(C2CC3(COC3)C2)C(=O)[C@H](CCc2ccc(C(F)(F)F)c(Cl)c2)NC(=O)CN(C)C(=O)[C@H](CC2CCCCC2)N(C)C(=O)CN(C)C(=O)CN(C)C1=O` [Compound 2030] ([NMeL]I[Sar][Sar][NMeCha][Sar][hPhe(3-Cl-4-CF3)][X28][Ac5c][NMeChg][NMeD]-Piperidide; lactam N-11), in that order: 2.3 nM and > 500 nM.
For `CC[C@H](C)[C@@H]1NC(=O)CSC[C@@H](C(=O)N(C)C)N(C)C(=O)[C@H](C2CCCC2)N(C)C(=O)C2(CCCC2)NC(=O)[C@@H]2CCCN2C(=O)[C@H](CCc2ccc(C(F)(F)F)c(Cl)c2)NC(=O)CN(C)C(=O)[C@H](CC2CCCCC2)N(C)C(=O)CN(C)C(=O)CN(C)C1=O` [Compound 2172, (3S,9S,18S,24R,27S,33S)-18-[(2S)-butan-2-yl]-3-[2-[3-chloro-4-(trifluoromethyl)phenyl]ethyl]-9-(cyclohexylmethyl)-27-cyclopentyl-N,N,7,10,13,16,25,28-octamethyl-2,5,8,11,14,17,20,26,29,32-decaoxospiro[22-thia-1,4,7,10,13,16,19,25,28,31-decazabicyclo[31.3.0]hexatriacontane-30,1′-cyclopentane]-24-carboxamide] ({CH2CO}-I[Sar][Sar][NMeCha][Sar][hPhe(3-Cl-4-CF3)]P[Ac5c][NMeGly(cPent)][NMeC]-NMe2; thioether N-10) the same measures were 14 nM and > 500 nM.
